The values below come from US8748428B2, “Use of a PKC inhibitor” (Novartis AG, priority 2010, dated 2014).

Structures are written as SMILES. A value given as a limit tells only on which side of the number the result lay.

Holding throughout (format): cell-based
One assay concerns IL-6 mRNA in TMD8 cells. Put plainly: IL-6 mRNA expression (Taqman). As to conditions: TMD8, 24 hours, 10 nM to 10 uM. An excerpt:
Constitutive activation of the NFkB pathway is a molecular hallmark of ABC DLBCL cells and is required for their proliferation and survival. See Davis, R. E., et al., J Exp Med, 194(12), 1861-1874 (2001). To confirm that the growth inhibitory effect in response to PKC inhibition is mediated through modulation of NFkB pathway signaling, the expression of NFkB pathway genes were monitored in response to AEB071 treatment. The NFkB-pathway-induced cytokine IL-6 was used as a marker to study NFkB pathway modulation by PKC inhibitors. See Lam, L. T., et al., Blood 111(7):3701-13 (2008). To measure IL-6 mRNA levels, cells were plated in […] plates in 2 ml media at 2M/ml, then treated with DMSO or inhibitors from 10 nM to 10 uM (4-fold dilutions) for 24 hours. Total RNA was harvested using the RNeasy kit (Qiagen, #74104) and cDNA was made from 1 μg total RNA using the High Capacity cDNA kit (ABI, #4368814), according to manufacturer's protocols. Taqman probes (ABI: IL-6, Hs00174131_m1) were used with Gene Expression Master Mix (ABI, 4369510) to determine the amount of mRNA expression for IL-6 relative to an endogenous control gene (ABI: TBP, 4326322E) and the DMSO control using the delta-delta Ct method.

A further assay concerns DB cells. Put plainly: Growth inhibition, CellTiter-Glo, 5 days. As to conditions: Homo sapiens, 120 h, GC DLBCL, no NFkB mutation, 5 days treatment, read-out: growth inhibitory IC50, DB. The text has this: (§1) Two pharmacological PKC inhibitors: (i) the pan-PKC inhibitor, Sotrastaurin, also known as AEB071, and (ii) the PKCa/b-selective compound, 3-[2-chloro-7-[(dimethylamino)methyl]-1-naphthalenyl]-4-[7-[2-(2-methoxyethoxy)ethoxy]-1H-indol-3-yl]-1H-pyrrole-2,5-dione (referred to herein as “Compound B”), were used to evaluate the proliferation of several diffuse large B cell lymphoma (DLBCL) lines. The IKKb-selective inhibitors N-(6-chloro-7-methoxy-9H-β-carbolin-8-yl)-2-methylnicotinamide (referred to herein as “MLN120B”) and N-[(2R,6R)-2,6-dimethyl-4-piperidinyl]-4-(7-fluoro-1H-indol-3-yl)-2-pyrimidinamine (referred to herein as “Compound A”) were used as control compounds. ABC DLBCL cell lines (OCI-LY3, OCI-LY10, HBL1, U2932, TMD8, Su-DHL2) and GC DLBCL cell lines (Su-DHL4, DB, K-422) were treated for 5 days with PKC inhibitors (A) Sotrastaurin (AEB071) or (B) Compound B; IKKb inhibitors (C) MLN120B or (D) Compound A. Cells were plated in 96-well plates (Corning, #3358) at 5000 cells/well in 100 μL and treated with DMSO or inhibitors at concentrations ranging from 160 nM to 20 μM (2-fold dilutions). Following 5 days of treatment, cells were lysed with CellTiter-Glo® Luminescent Cell Viability Assay reagent (Promega, G7573), lysates were transferred to opaque 96-well plates (Corning, #3971), and luminescence signal was read using the Envision. Percent growth was calculated relative to median DMSO signal.
(§2) While all ABC DLBCL cell lines were sensitive to IKK inhibitors, their response to PKC inhibitors varied strongly (Table 1A below). The cell lines that are insensitive to PKC inhibitors, OCI-Ly3 and Su-DHL2, have reported mutations in CARD11 and A20, respectively. […] The fact that these oncogenic lesions are thought to function downstream of PKCβ in CBM-NFkB signaling provides a molecular rationale for their insensitivity. […] See, Compagno, M., et al, “Mutations of multiple genes cause deregulation of NF-κB in diffuse large B-cell lymphoma” Nature, 459 (7247), 717-722 (2009)). […] Tables 1A and 1B below show the growth inhibitory IC50 values, which were determined by measuring ATP concentration (Cell Titer Glo), for the indicated compounds in the indicated cell lines. IC50 values were determined as the concentration of compound that leads to 50% reduction of cell growth.

The subject of a further assay is HBL1 cells. Nature of the assay: Growth inhibition, CellTiter-Glo, 5 days. As to conditions: HBL1, 120 h; ABC DLBCL, CD79B mutation; 5 days treatment; read-out: growth inhibitory IC50, HBL1.
Description: as §1, §2

For the next assay, the system named is K422 cells. Nature of the assay: Growth inhibition, CellTiter-Glo, 5 days. As to conditions: 120 h; GC DLBCL, no NFkB mutation; 5 days treatment; read-out: growth inhibitory IC50, K422.
Description: as §1, §2

A further assay has as its system OCI-Ly10 cells. Nature of the assay: Growth inhibition, CellTiter-Glo, 5 days. As to conditions: Homo sapiens, OCI-Ly10, 120 h; ABC DLBCL, CD79A mutation; 5 days treatment; read-out: growth inhibitory IC50, OCI-Ly10.
Description: as §1, §2

The subject of the next assay is OCI-Ly3 cells. Nature of the assay: Growth inhibition, CellTiter-Glo, 5 days. As to conditions: Homo sapiens, OCI-Ly3, 120 h; ABC DLBCL, CARD11 mutation; 5 days treatment; read-out: growth inhibitory IC50, OCI-Ly3.
Description: as §1, §2

The next assay deals with Su-DHL2 cells. Put plainly: Growth inhibition, CellTiter-Glo, 5 days. As to conditions: Homo sapiens, SU-DHL-2, 120 h; ABC DLBCL, A20 mutation; 5 days treatment; read-out: growth inhibitory IC50, Su-DHL2.
Description: as §1, §2

The next assay relates to Su-DHL4 cells. Nature of the assay: Growth inhibition, CellTiter-Glo, 5 days. As to conditions: Homo sapiens, SU-DHL-4, 120 h; GC DLBCL, no NFkB mutation; 5 days treatment; read-out: growth inhibitory IC50, Su-DHL4.
Description: as §1, §2

A further assay has as its system TMD8 cells. Put plainly: Growth inhibition, CellTiter-Glo, 5 days. As to conditions: Homo sapiens, TMD8, 120 h; ABC DLBCL, CD79B mutation; 5 days treatment; read-out: growth inhibitory IC50, TMD8.
Description: as §1, §2

A further assay relates to U2392 cells. Put plainly: Growth inhibition, CellTiter-Glo, 5 days. As to conditions: 120 h; ABC DLBCL, TAK1 mutation; 5 days treatment; read-out: growth inhibitory IC50, U2392.
Description: as §1, §2

Assay [1] has as its system IL-6 secretion in HBL1 cells. Put plainly: IL-6 secretion (Quantikine ELISA). As to conditions: HBL1, ELISA of supernatant, 48 hours. Here is the method: (§3) The fact that IL-6 is secreted from cells allowed for monitoring of IL-6 levels in cell supernatants. IL-6 secretion was determined by Quantikine ELISA using supernatant from treated cells. Cells were washed and plated at 100,000 cells/well in 100 ul in fresh media in round-bottom 96-well plates (Corning, #3358). The cells were then treated with DMSO or inhibitors at concentrations ranging from 80 nM to 10 uM (2-fold dilutions), and incubated at 37° C. for 48 hours. Then the conditioned media was transferred to v-bottom 96-well plates (Nunc, #12565436). The level of IL-6 secretion was determined by the Quantkine colorimetric ELISA kit from (R & D Systems, #D6050), according to the manufacturer's instructions. For the IL-6 ELISA, the conditioned media was diluted 1:2 with fresh media (except ion: the HBL1 conditioned media was not diluted, it was used 1:1). In FIG. 2, IL-6 secretion for each dose is expressed as a percentage of IL-6 secretion from cells treated with DMSO.

Assay [2] has as its system IL-6 secretion in TMD8 cells. Put plainly: IL-6 secretion (Quantikine ELISA). As to conditions: Homo sapiens; TMD8, ELISA of supernatant, 48 hours. Here is the method: as §3

Turning to `CN(C)C[C@@H]1CCn2cc(c3ccccc32)C2=C(C(=O)NC2=O)c2cn(c3ccccc23)CCO1` [LY333531, (9S)-9-[(dimethylamino)methyl]-6,7,10,11-tetrahydro-9H,18H-5, 21:12,17-dimethenodibenzo[e,k]pyrrolo[3,4-h][1,4,13]oxadiazacyclohexadecine-18,20(19H)-dione], the “IL-6 mRNA expression” value in the assay on IL-6 mRNA in TMD8 cells is reported as “reduced IL-6 mRNA expression in a dose-dependent manner”.

Consider `COc1c(Cl)cc2c([nH]c3cnccc32)c1NC(=O)c1cccnc1C` [MLN120B, N-(6-chloro-7-methoxy-9H-β-carbolin-8-yl)-2-methylnicotinamide], for which the concentration for half-maximal inhibition (IC50) is > 40 µM with DB cells; 10000 nM in the assay on HBL1 cells; > 40 µM in the assay on K422 cells; 10000 nM in the assay on OCI-Ly10 cells; 12 µM in the assay on OCI-Ly3 cells; 10 µM with Su-DHL2 cells. For the same molecule, the half-maximal inhibitory concentration (IC50) in the assay on Su-DHL4 cells is > 20 µM; with TMD8 cells it was 10000 nM; in the assay on U2392 cells it was 10 µM.

For the molecule `O=C1NC(=O)C(c2c[nH]c3ccccc23)=C1c1nc(N2CCNCC2)nc2ccccc12` [Compound D, 3-(1H-Indol-3-yl)-4-[2-(piperazin-1-yl)quinazolin-4-yl]pyrrole-2,5-dione], the IC50 was > 20 µM with DB cells; 200 nM in the assay with HBL1 cells; 15 µM with OCI-Ly3 cells; > 20 µM in the assay with Su-DHL2 cells; 15 µM in the assay on Su-DHL4 cells; 200 nM in the assay with TMD8 cells. For the same molecule, the IC50 in the assay on U2392 cells stood at 3 µM.

For `C[C@@H]1CC(Nc2nccc(-c3c[nH]c4c(F)cccc34)n2)C[C@@H](C)N1` (stereo partly drawn) [Compound A, N-[(2R,6R)-2,6-dimethyl-4-piperidinyl]-4-(7-fluoro-1H-indol-3-yl)-2-pyrimidinamine], the half-maximal inhibitory concentration (IC50) was > 20 µM in the assay on DB cells; 2500 nM in the assay on HBL1 cells; 10 µM with K422 cells; 300 nM in the assay on OCI-Ly10 cells; 0.4 µM in the assay with OCI-Ly3 cells; 15 µM in the assay with Su-DHL2 cells. The IC50 in the assay with Su-DHL4 cells was 10 µM; with TMD8 cells, 200 nM; in the assay on U2392 cells, 2.5 µM.

Consider `COCCOCCOc1cccc2c(C3=C(c4c(Cl)ccc5ccc(CN(C)C)cc45)C(=O)NC3=O)c[nH]c12` [Compound B, 3-[2-chloro-7-[(dimethylamino)methyl]-1-naphthalenyl]-4-[7-[2-(2-methoxyethoxy)ethoxy]-1H-indol-3-yl]-1H-Pyrrole-2,5-dione], for which the half-inhibitory concentration (IC50) with DB cells was > 20 µM; with HBL1 cells, 500 nM; with K422 cells it was 11 µM; in the assay with OCI-Ly10 cells, 500 nM; in the assay with OCI-Ly3 cells it was > 20 µM; in the assay on Su-DHL2 cells, 15 µM. The half-maximal inhibitory concentration (IC50) in the assay with Su-DHL4 cells is 7.5 µM; in the assay on TMD8 cells, 200 nM; in the assay on U2392 cells, 10 µM; in [1], < 200 nM; in assay [2], < 200 nM. Moreover, the “IL-6 mRNA expression” value in the assay on IL-6 mRNA in TMD8 cells is given as “reduced IL-6 mRNA expression in a dose-dependent manner”.
